Data set [1] deals with T1, mouse GLP-1 receptor (Mus musculus, UniProt O35659).
T1 sequence (O35659 22-463): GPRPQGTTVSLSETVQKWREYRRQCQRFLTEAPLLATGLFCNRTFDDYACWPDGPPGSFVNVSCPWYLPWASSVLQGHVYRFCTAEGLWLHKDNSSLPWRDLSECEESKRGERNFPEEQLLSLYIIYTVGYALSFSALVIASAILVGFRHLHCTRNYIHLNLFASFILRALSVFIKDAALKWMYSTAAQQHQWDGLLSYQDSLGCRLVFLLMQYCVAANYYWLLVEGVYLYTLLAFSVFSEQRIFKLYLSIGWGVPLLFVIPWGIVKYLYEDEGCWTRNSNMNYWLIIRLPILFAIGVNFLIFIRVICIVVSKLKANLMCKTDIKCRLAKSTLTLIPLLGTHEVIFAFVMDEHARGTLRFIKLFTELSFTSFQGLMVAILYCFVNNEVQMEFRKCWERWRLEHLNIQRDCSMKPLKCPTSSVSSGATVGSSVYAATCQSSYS
Particulars: for Potency (%), percentage of potency compare to GLP-1-G^2: cAMP production, from EC50.

The subject of another data set is normal mice (C57BL/6J). The data set can be described thus: Blood glucose study in normal fed mice. Particulars: for effect on blood glucose concentration: normal fed C57BL/6J mice, n = 3, 5 μg per mouse (50 nmol kg−1) i.v., monitored 6 h. Format: in vivo, mouse. Also noted: key to In vivo activity (indicator): + active; +++: + + + more active. The procedure: In the first study, we evaluated the effect of the analogues on the blood glucose concentration of normal mice (Fig. 3). The fed mice were treated with the analogues and their blood glucose concentration was monitored before and after dosing for 6 h. […] Indeed, a decrease of blood glucose concentration is observed after 30 min and the effect is preserved for 4 h after dosing.
Fig. 3 Blood glucose study in mice. a–c Blood glucose concentration in normal mice (C57BL/6J, male, 20–25 g, n = 3) before and after dosing: 5 μg per mouse (50 nmol kg^−1) i.v. Formulation: 20 μg mL^−1 in PBS 1×. The dosing was done at T0. Data are mean ± SEM. […] Source data are provided as a Source Data file
After the acclimation period (at least 5 days), mice (male C57BL/6J mice (Charles River laboratories) 8 weeks old, 20–25 g) were randomized into 10 groups (n = 3 per group) according to their body weight. They were acutely treated via i.v. route at 10 am (5 µg per mouse). Blood glucose was measured before dosing and at 30 min, 1, 2, 4, 6 h after dosing in fed conditions.

Another data set can be described thus: in vitro. As to conditions: mouse, plasma; for remaining at 20 min, 5 µM / remaining at 1 h, 5 µM: pH 7.4, % remaining analogue. How it is done:
The oligomer was then diluted 1/50 with a solution of plasma/PBS pH 7.4 (1:1) to afford a final concentration of 5 µM and incubated at 37 °C (4 µL of the stock solution was diluted with 196 µL of plasma/PBS, pH 7.4, 1:1). Each compound was also incubated in the absence of plasma (196 µL of H2O/PBS, pH 7.4, 1:1). At the indicated time (20 min and 60 min) an aliquot of 70 µL was removed from each experimental reaction and pipetting into 175 µL of acetonitrile at 0 °C to quench the reaction (t = 0 min was determined using the reaction without plasma). The samples were frozen at –80 °C before analysis. The frozen samples were defrosted, stirred with a vortex 5 min and finally centrifuged 5 min at 16 °C (1500 × g). The supernatant was analysed by LC-MS. The time course of oligomer degradation was determined by integrating the area of the peak in the extracted ion chromatogram.
Supplementar y Figur e 2 : Mouse plasma degradation assay. […] Data are
mean ± SEM, n = 4. Source data are provided as a Source Data file (T able 2 tab).
Supplementar y Figur e 3.
Data are mean ± SEM, n = 3.
Source data are provided as a Source Data file […]

Data set [2] is described as follows: NEP 24.11 degradation assay. How it is done:
Stock solutions of the oligomers were prepared at a concentration of 400 µM in a solution of 50 mM HEPES buffer, 50 mM NaCl, 0.05% Tween-80, pH 8.0. Stock solution of NEP 24.11 was prepared at a concentration of 100 µg mL^−1 in water. Stability of oligomers to NEP 24.11 was assessed by conducting protease reaction in a 96-well plates at 20 °C. […] Each compound was also incubated in the absence of the enzyme (12 µL of HEPES buffer and 38 µL of oligomer). […] A portion of the quenched reaction solution was analysed by HPLC. The time course of peptide degradation was determined by integrating the area of each peak in a series of HPLC traces.

Data set [3] addresses T1, mouse GLP-1 receptor. Kind of data set: cell-based. As to conditions: for Emax: read-out: Top (best-fit value), variable slope four-parameter fit, unconstrained, 14: experiment 1.
For a further data set, the system named is db/db mice. The data set can be described thus: Blood glucose study in db/db mice. Particulars: n = 5, 200 μg kg−1 (50 nmol kg−1) intraperitoneal, fed. The data set is classed as in vivo, mouse. From the text:
Data are mean ± SEM. […] Source data are provided as a Source Data file

By half-life is commonly meant how long it takes for the measured level to halve. Broadly, the amount remaining is the share of the starting amount still present when the sample was taken. What is called EC50 is the midpoint of the concentration-response curve.

Structures are written as SMILES. Starred links: 1 amine or outer side, 2 acyl side, 3 side chain; linkers in the order of their positions; H or OH if unused. Positions of bridges follow the written chain, without caps; N, C: chain ends. Residues, ends and D or L forms follow the SMILES beside them. Chains are numbered I, II in the order given. X3 = C[C@@H](CNC(=O)[*:1])NC(=O)NC[C@H](CCC(=O)O)NC(=O)NC[C@H](Cc1ccc(O)cc1)N[*:2]

`CC[C@H](C)[C@H](NC(=O)[C@H](Cc1ccccc1)NC(=O)[C@H](CCC(=O)O)NC(=O)[C@H](CCCCN)NC(=O)[C@H](C)NC(=O)[C@H](C)NC(=O)[C@H](CCC(N)=O)NC(=O)CNC(=O)[C@H](CCC(=O)O)NC(=O)[C@H](CC(C)C)NC(=O)[C@H](Cc1ccc(O)cc1)NC(=O)NC[C@H](C)NC(=O)NC[C@H](C)NC(=O)N[C@@H](CNC(=O)[C@H](CO)NC(=O)[C@@H](NC(=O)[C@H](Cc1ccccc1)NC(=O)[C@@H](NC(=O)CNC(=O)[C@H](CCC(=O)O)NC(=O)CNC(=O)[C@@H](N)Cc1c[nH]cn1)[C@@H](C)O)[C@@H](C)O)CC(=O)O)C(=O)N[C@@H](C)C(=O)N[C@@H](Cc1c[nH]c2ccccc12)C(=O)N[C@@H](CC(C)C)C(=O)N[C@H](C(=O)N[C@@H](CCCCN)C(=O)NCC(=O)N[C@@H](CCCNC(=N)N)C(=O)NCC(N)=O)C(C)C` [compound 2, GG2[D^uαA^uA^u]^9-12]: at mouse GLP-1 receptor [1], the “LogEC50 (best-fit value)” value is -7.897 and the “Potency (%), percentage of potency compare to GLP-1-G^2” value is reported as 2%. Further, the “effect on blood glucose concentration” value in the data set with normal mice (C57BL/6J) is “showed no activity”. The compound further gave a half-life in “in vitro” (pH 7.4) of 0.283 h. In the data set “in vitro”, this compound displayed a share remaining at 20 min, 5 µM of 38% and a fraction remaining at 1 h, 5 µM of 21.2%. This compound also returned an amount remaining at 6 h, […] in data set [2] (NEP 24.11 (isolated enzyme), pH 8, % remaining analogue, NEP 24.11 20 μg mL−1, […], pH 8.0, 20 °C, HPLC, time 6 h, replicate 1) of 39.2%. For the same compound, at mouse GLP-1 receptor [3], the response was half-maximal at 13 nM (EC50) and the Emax was found to be 77.7%.

As for `CC[C@H](C)[C@H](NC(=O)[C@H](Cc1ccccc1)NC(=O)[C@H](CCC(=O)O)NC(=O)[C@H](CCCCN)NC(=O)[C@H](C)NC(=O)[C@H](C)NC(=O)NC[C@H](C)NC(=O)NC[C@H](CCC(=O)O)NC(=O)NC[C@H](Cc1ccc(O)cc1)NC(=O)[C@H](Cc1ccc(O)cc1)NC(=O)[C@H](CO)NC(=O)[C@H](CO)NC(=O)[C@@H](NC(=O)[C@H](CC(=O)O)NC(=O)[C@H](CO)NC(=O)[C@@H](NC(=O)[C@H](Cc1ccccc1)NC(=O)[C@@H](NC(=O)CNC(=O)[C@H](CCC(=O)O)NC(=O)CNC(=O)[C@@H](N)Cc1c[nH]cn1)[C@@H](C)O)[C@@H](C)O)C(C)C)C(=O)N[C@@H](C)C(=O)N[C@@H](Cc1c[nH]c2ccccc12)C(=O)N[C@@H](CC(C)C)C(=O)N[C@H](C(=O)N[C@@H](CCCCN)C(=O)NCC(=O)N[C@@H](CCCNC(=N)N)C(=O)NCC(N)=O)C(C)C` [compound 9, GG2[Y^uE^uA^u]^14-17] (I: AAKEFIAWLVKGRG-NH2 / II: H-HGEGTFTSDVSSY; linker I:N-II:C via X3), at mouse GLP-1 receptor [1], the “LogEC50 (best-fit value)” value is given as -9.749 and the “Potency (%), percentage of potency compare to GLP-1-G^2” value was 135%. Also, the “In vivo activity (indicator)” value with normal mice (C57BL/6J) (mice, 50 nmol kg−1 i.v.) is recorded as “+”. In addition, the “effect on blood glucose concentration” value in the data set with normal mice (C57BL/6J) is on record as “showed efficacy but no improvement”. Besides, in the data set “in vitro”, the fraction remaining at 20 min, 5 µM worked out at 33.1% and the share remaining at 1 h, 5 µM is 11.7%. The compound further gave a half-life in data set [2] (isolated enzyme neprilysin, pH 8) of 3 h. For the same compound, on mouse GLP-1 receptor [3], a half-maximal effect (EC50) was put at 0.18 nM and the Emax was determined as 88.2%.

For the compound `CCCCCCCCCCCCCCCC(=O)N[C@@H](CCC(=O)NCCCC[C@H](NC(=O)[C@H](C)NC(=O)[C@H](C)NC(=O)[C@H](CCC(N)=O)NC(=O)CNC(=O)[C@H](CCC(=O)O)NC(=O)[C@H](CC(C)C)NC(=O)[C@H](Cc1ccc(O)cc1)NC(=O)[C@H](CO)NC(=O)[C@H](CO)NC(=O)[C@@H](NC(=O)[C@H](CC(=O)O)NC(=O)[C@H](CO)NC(=O)[C@@H](NC(=O)[C@H](Cc1ccccc1)NC(=O)[C@@H](NC(=O)CNC(=O)[C@H](CCC(=O)O)NC(=O)[C@H](C)NC(=O)[C@@H](N)Cc1c[nH]cn1)[C@@H](C)O)[C@@H](C)O)C(C)C)C(=O)N[C@@H](CCC(=O)O)C(=O)N[C@@H](Cc1ccccc1)C(=O)N[C@H](C(=O)N[C@@H](C)C(=O)N[C@@H](Cc1c[nH]c2ccccc12)C(=O)N[C@@H](CC(C)C)C(=O)N[C@H](C(=O)N[C@@H](CCCNC(=N)N)C(=O)NCC(=O)N[C@@H](CCCNC(=N)N)C(=O)NCC(=O)O)C(C)C)[C@@H](C)CC)C(=O)O` [liraglutide], the “activity on blood glucose 48 h after a single dose” value in the data set on db/db mice is recorded as “no more significant activity”.

Source of the values: article PMC6389962 (Nature Communications, 2019).
